Test system: 885724-159-R-J1-PDC complex spheroid viability
Experiment: Anticancer human tumor 885724-159-R-J1-PDC patient-derived pancreatic adenocarcinoma cell line growth inhibition [POLQ]
Details: for IC50: curve of first compound; for viability, T/C: stronger effect = lower value
Summary of the method: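 Three-cell-type spheroids modelling solid tumor plus stroma served as the readout system; POL inhibitors were tested individually and in combination, concentration ranges set by clinical Cmax where known.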

[1] = second compound 0.0316 µM, first compound 0.0316 µM
[2] = second compound 0.0316 µM, first compound 0.1 µM
[3] = second compound 0.0316 µM, first compound 0.316 µM
[4] = second compound 0.0316 µM, first compound 1 µM
[5] = second compound 0.0316 µM, first compound 3.16 µM
[6] = second compound 0.0316 µM, first compound 10 µM
[7] = second compound 0.1 µM, first compound 0.0316 µM
[8] = second compound 0.1 µM, first compound 0.1 µM
[9] = second compound 0.1 µM, first compound 0.316 µM
[10] = second compound 0.1 µM, first compound 1 µM
[11] = second compound 0.1 µM, first compound 3.16 µM
[12] = second compound 0.1 µM, first compound 10 µM
[13] = second compound 0.316 µM, first compound 0.0316 µM
[14] = second compound 0.316 µM, first compound 0.1 µM
[15] = second compound 0.316 µM, first compound 0.316 µM
[16] = second compound 0.316 µM, first compound 1 µM
[17] = second compound 0.316 µM, first compound 3.16 µM
[18] = second compound 0.316 µM, first compound 10 µM
[19] = second compound 1 µM, first compound 0.0316 µM
[20] = second compound 1 µM, first compound 0.1 µM
[21] = second compound 1 µM, first compound 0.316 µM
[22] = second compound 1 µM, first compound 1 µM
[23] = second compound 1 µM, first compound 3.16 µM
[24] = second compound 1 µM, first compound 10 µM
[25] = second compound 3.16 µM, first compound 0.0316 µM
[26] = second compound 3.16 µM, first compound 0.1 µM
[27] = second compound 3.16 µM, first compound 0.316 µM
[28] = second compound 3.16 µM, first compound 1 µM
[29] = second compound 3.16 µM, first compound 3.16 µM
[30] = second compound 3.16 µM, first compound 10 µM
[31] = second compound 10 µM, first compound 0.0316 µM
[32] = second compound 10 µM, first compound 0.1 µM
[33] = second compound 10 µM, first compound 0.316 µM
[34] = second compound 10 µM, first compound 1 µM
[35] = second compound 10 µM, first compound 3.16 µM
[36] = second compound 10 µM, first compound 10 µM
[37] = second compound 0.0316 µM, first compound 0.00316 µM
[38] = second compound 0.0316 µM, first compound 0.01 µM
[39] = second compound 0.1 µM, first compound 0.00316 µM
[40] = second compound 0.1 µM, first compound 0.01 µM
[41] = second compound 0.316 µM, first compound 0.00316 µM
[42] = second compound 0.316 µM, first compound 0.01 µM
[43] = second compound 1 µM, first compound 0.00316 µM
[44] = second compound 1 µM, first compound 0.01 µM
[45] = second compound 3.16 µM, first compound 0.00316 µM
[46] = second compound 3.16 µM, first compound 0.01 µM
[47] = second compound 10 µM, first compound 0.00316 µM
[48] = second compound 10 µM, first compound 0.01 µM
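Note: spheroids exposed to compounds for 7 days.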

Nc1ccn(C2OC(CO)C(O)C2(F)F)c(=O)n1 (stereo not drawn) + Cc1cccc(N(C)C(=O)C2C(O)CCN2c2nc(C)cc(C(F)(F)F)c2C#N)c1
IC50 (second compound 0.0316 µM): 5140 nM
IC50 (second compound 0.1 µM): > 10000 nM
IC50 (second compound 0.316 µM): 4240 nM
IC50 (second compound 1 µM): 4150 nM
IC50 (second compound 3.16 µM): 3060 nM
IC50 (second compound 10 µM): 7260 nM
viability, T/C [1]: 59.3%
viability, T/C [2]: 55.2%
viability, T/C [3]: 55.2%
viability, T/C [4]: 52.1%
viability, T/C [5]: 56.2%
viability, T/C [6]: 42.8%
viability, T/C [7]: 70.7%
viability, T/C [8]: 56%
viability, T/C [9]: 57.5%
viability, T/C [10]: 58.2%
viability, T/C [11]: 55.3%
viability, T/C [12]: 45.9%
viability, T/C [13]: 67.2%
viability, T/C [14]: 58.5%
viability, T/C [15]: 55%
viability, T/C [16]: 57.6%
viability, T/C [17]: 53.1%
viability, T/C [18]: 45.4%
viability, T/C [19]: 65.1%
viability, T/C [20]: 55.4%
viability, T/C [21]: 58.2%
viability, T/C [22]: 57.4%
viability, T/C [23]: 53.1%
viability, T/C [24]: 42.8%
viability, T/C [25]: 66%
viability, T/C [26]: 56.7%
viability, T/C [27]: 52%
viability, T/C [28]: 56.8%
viability, T/C [29]: 54.5%
viability, T/C [30]: 42.8%
viability, T/C [31]: 68.9%
viability, T/C [32]: 55.5%
viability, T/C [33]: 59.3%
viability, T/C [34]: 56%
viability, T/C [35]: 58%
viability, T/C [36]: 45.1%

CCc1c2c(nc3ccc(O)cc13)-c1cc3c(c(=O)n1C2)COC(=O)[C@]3(O)CC + Cc1cccc(N(C)C(=O)C2C(O)CCN2c2nc(C)cc(C(F)(F)F)c2C#N)c1
IC50 (second compound 0.0316 µM): 96.3 nM
IC50 (second compound 0.1 µM): 66.8 nM
IC50 (second compound 0.316 µM): 75.2 nM
IC50 (second compound 1 µM): 58.8 nM
IC50 (second compound 3.16 µM): 53 nM
IC50 (second compound 10 µM): 56.8 nM
viability, T/C [37]: 80.9%
viability, T/C [38]: 53.6%
viability, T/C [1]: 53.3%
viability, T/C [2]: 52.6%
viability, T/C [3]: 39.9%
viability, T/C [4]: 5.13%
viability, T/C [39]: 80.6%
viability, T/C [40]: 64.4%
viability, T/C [7]: 50.5%
viability, T/C [8]: 49.4%
viability, T/C [9]: 35.3%
viability, T/C [10]: 4.47%
viability, T/C [41]: 82.7%
viability, T/C [42]: 68.3%
viability, T/C [13]: 55.5%
viability, T/C [14]: 47.4%
viability, T/C [15]: 34.5%
viability, T/C [16]: 4.66%
viability, T/C [43]: 79.6%
viability, T/C [44]: 65.8%
viability, T/C [19]: 51.8%
viability, T/C [20]: 46.8%
viability, T/C [21]: 34.5%
viability, T/C [22]: 4.77%
viability, T/C [45]: 98%
viability, T/C [46]: 62.3%
viability, T/C [25]: 51.7%
viability, T/C [26]: 50.7%
viability, T/C [27]: 28.6%
viability, T/C [28]: 4.41%
viability, T/C [47]: 80.2%
viability, T/C [48]: 64.9%
viability, T/C [31]: 52.2%
viability, T/C [32]: 46.4%
viability, T/C [33]: 30.1%
viability, T/C [34]: 4.59%

Cn1ncnc1[C@H]1c2n[nH]c(=O)c3cc(F)cc(c23)N[C@@H]1c1ccc(F)cc1 + Nc1ccc(C#CCN(C(=O)Cc2ncc(C(F)(F)F)cc2C(F)(F)F)c2ccc(F)cc2)nn1
IC50 (second compound 0.0316 µM): > 100 nM
IC50 (second compound 0.1 µM): > 100 nM
IC50 (second compound 0.316 µM): > 100 nM
IC50 (second compound 1 µM): > 100 nM
IC50 (second compound 3.16 µM): > 100 nM
IC50 (second compound 10 µM): > 100 nM
viability, T/C (second compound 0.0316 µM, first compound 0.000316 µM): 95.1%
viability, T/C (second compound 0.0316 µM, first compound 0.001 µM): 86.4%
viability, T/C [37]: 90.3%
viability, T/C [38]: 90.7%
viability, T/C [1]: 88.1%
viability, T/C [2]: 86.8%
viability, T/C (second compound 0.1 µM, first compound 0.000316 µM): 104%
viability, T/C (second compound 0.1 µM, first compound 0.001 µM): 86.5%
viability, T/C [39]: 90.1%
viability, T/C [40]: 88.1%
viability, T/C [7]: 93.1%
viability, T/C [8]: 80.4%
viability, T/C (second compound 0.316 µM, first compound 0.000316 µM): 99.9%
viability, T/C (second compound 0.316 µM, first compound 0.001 µM): 94.1%
viability, T/C [41]: 89.8%
viability, T/C [42]: 84.8%
viability, T/C [13]: 87.4%
viability, T/C [14]: 75.7%
viability, T/C (second compound 1 µM, first compound 0.000316 µM): 99.2%
viability, T/C (second compound 1 µM, first compound 0.001 µM): 88%
viability, T/C [43]: 89.5%
viability, T/C [44]: 95%
viability, T/C [19]: 92.2%
viability, T/C [20]: 81.7%
viability, T/C (second compound 3.16 µM, first compound 0.000316 µM): 97.8%
viability, T/C (second compound 3.16 µM, first compound 0.001 µM): 88%
viability, T/C [45]: 90%
viability, T/C [46]: 87%
viability, T/C [25]: 83.9%
viability, T/C [26]: 83.7%
viability, T/C (second compound 10 µM, first compound 0.000316 µM): 105%
viability, T/C (second compound 10 µM, first compound 0.001 µM): 92.1%
viability, T/C [47]: 96.1%
viability, T/C [48]: 92.2%
viability, T/C [31]: 92.4%
viability, T/C [32]: 84%

O=c1[nH]cc(F)c(=O)[nH]1 + COC1C(OC(N)=O)C(O)C(Oc2ccc3c(O)c(NC(=O)c4ccc(O)c(CC=C(C)C)c4)c(=O)oc3c2C)OC1(C)C
IC50 (second compound 0.0316 µM): > 10000 nM
IC50 (second compound 0.1 µM): > 10000 nM
IC50 (second compound 0.316 µM): > 10000 nM
IC50 (second compound 1 µM): > 10000 nM
IC50 (second compound 3.16 µM): > 10000 nM
IC50 (second compound 10 µM): > 10000 nM
viability, T/C [1]: 103%
viability, T/C [2]: 104%
viability, T/C [3]: 91.6%
viability, T/C [4]: 95.6%
viability, T/C [5]: 89.4%
viability, T/C [6]: 80.5%
viability, T/C [7]: 117%
viability, T/C [8]: 96.3%
viability, T/C [9]: 101%
viability, T/C [10]: 97%
viability, T/C [11]: 88.4%
viability, T/C [12]: 67.5%
viability, T/C [13]: 99%
viability, T/C [14]: 91.9%
viability, T/C [15]: 103%
viability, T/C [16]: 93.8%
viability, T/C [17]: 80.3%
viability, T/C [18]: 73.6%
viability, T/C [19]: 119%
viability, T/C [20]: 108%
viability, T/C [21]: 100%
viability, T/C [22]: 92.7%
viability, T/C [23]: 89.6%
viability, T/C [24]: 71.8%
viability, T/C [25]: 104%
viability, T/C [26]: 94.1%
viability, T/C [27]: 92.3%
viability, T/C [28]: 98.8%
viability, T/C [29]: 83.5%
viability, T/C [30]: 73.8%
viability, T/C [31]: 113%
viability, T/C [32]: 86.8%
viability, T/C [33]: 92.9%
viability, T/C [34]: 96.4%
viability, T/C [35]: 83.2%
viability, T/C [36]: 70.8%
